System: leukemia cell that express either wild type FLT3 or FLT3-ITD mutations
Assay: not given
Settings: cited from earlier work

Row | SMILES | growth of leukemia cells
1 | C=CCNC1=C2C[C@@H](C)C[C@H](OC)[C@H](O)[C@@H](C)/C=C(\C)[C@H](OC(N)=O)[C@@H](OC)/C=C\C=C(/C)C(=O)NC(=CC1=O)C2=O [Compound 17AAG] | inhibited

Target: T1, FLT3 (Homo sapiens, UniProt P36888)
T1 construct: purchased Invitrogen PV3182
T1 sequence (P36888 564-993 limits assumed): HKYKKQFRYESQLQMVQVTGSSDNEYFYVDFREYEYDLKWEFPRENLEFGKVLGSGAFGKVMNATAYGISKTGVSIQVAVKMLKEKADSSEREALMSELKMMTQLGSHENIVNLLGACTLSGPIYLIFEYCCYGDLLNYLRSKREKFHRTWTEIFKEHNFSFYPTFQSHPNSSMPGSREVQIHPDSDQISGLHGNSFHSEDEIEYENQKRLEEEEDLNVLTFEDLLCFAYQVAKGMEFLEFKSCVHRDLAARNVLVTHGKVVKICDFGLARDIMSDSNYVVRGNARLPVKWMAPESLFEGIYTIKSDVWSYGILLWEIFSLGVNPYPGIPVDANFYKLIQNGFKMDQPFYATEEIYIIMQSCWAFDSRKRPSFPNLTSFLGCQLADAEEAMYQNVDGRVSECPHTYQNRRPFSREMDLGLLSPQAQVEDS
Assay: Flt3 biochemical assay (AlphaScreen, recombinant enzyme)
Settings: recombinant FLT3, ATP 100 μM, room temperature, 60 minutes

Row | SMILES | IC50 [nM]
2 | Clc1ccc(Cl)c(CNc2ccc(Cc3c[nH]c4ncccc34)cn2)c1 [Compound P-0380, (2,5-Dichloro-benzyl)-[5-(1H-pyrrolo[2,3-b]pyridin-3-ylmethyl)-pyridin-2-yl]-amine] | < 1000
3 | CCc1ccccc1CNc1ccc(Cc2c[nH]c3ncccc23)cn1 [Compound P-0383, (2-Ethyl-benzyl)-[5-(1H-pyrrolo[2,3-b]pyridin-3-ylmethyl)-pyridin-2-yl]-amine] | < 1000
4 | COc1ccccc1CNc1ncc(Cc2c[nH]c3ncc(Cl)cc23)cn1 [Compound P-0433, [5-(5-Chloro-1H-pyrrolo[2,3-b]pyridin-3-ylmethyl)-pyrimidin-2-yl]-(2-methoxy-benzyl)-amine] | < 1000
5 | N#Cc1cnc2[nH]cc(Cc3ccc(NCc4cncc(F)c4)nc3F)c2c1 [Compound P-0415, 3-{2-Fluoro-6-[(5-fluoro-pyridin-3-ylmethyl)-amino]-pyridin-3-ylmethyl}-1H-pyrrolo[2,3-b]pyridine-5-carbonitrile] | < 1000
6 | Fc1ccc(C(F)(F)F)c(CNc2ncc(Cc3c[nH]c4ncc(Cl)cc34)cn2)c1 [Compound P-0391, [5-(5-Chloro-1H-pyrrolo[2,3-b]pyridin-3-ylmethyl)-pyrimidin-2-yl]-(5-fluoro-2-trifluoromethyl-benzyl)-amine] | < 10000
7 | CC(Nc1ncc(Cc2c[nH]c3ncc(Cl)cc23)cn1)c1ccc(Cl)cc1 (stereo not shown) [Compound P-0427, [1-(4-Chloro-phenyl)-ethyl]-[5-(5-chloro-1H-pyrrolo[2,3-b]pyridin-3-ylmethyl)-pyrimidin-2-yl]-amine] | < 1000
8 | Fc1cnc2[nH]cc(Cc3ccc(NCc4c(F)cccc4F)nc3)c2c1 [Compound P-0333, (2,6-Difluoro-benzyl)-[5-(5-fluoro-1H-pyrrolo[2,3-b]pyridin-3-ylmethyl)-pyridin-2-yl]-amine] | < 10000
9 | C[C@H](Nc1ncc(Cc2c[nH]c3ncc(Cl)cc23)cn1)c1ccc(F)cc1 [Compound P-0428, [5-(5-Chloro-1H-pyrrolo[2,3-b]pyridin-3-ylmethyl)-pyrimidin-2-yl]-[(S)-1-(4-fluoro-phenyl)-ethyl]-amine] | < 1000
10 | COc1ccc(CNc2ccc(Cc3c[nH]c4ncc(C#N)cc34)cn2)cn1 [Compound P-0284, 3-{6-[(6-Methoxy-pyridin-3-ylmethyl)-amino]-pyridin-3-ylmethyl}-1H-pyrrolo[2,3-b]pyridine-5-carbonitrile] | < 1000
11 | Fc1cncc(CNc2ccc(Cc3c[nH]c4ncc(Cl)cc34)cn2)c1 [Compound P-0324, [5-(5-Chloro-1H-pyrrolo[2,3-b]pyridin-3-ylmethyl)-pyridin-2-yl]-(5-fluoro-pyridin-3-ylmethyl)-amine] | < 1000
12 | Fc1ccc(Cl)c(CNc2ncc(Cc3c[nH]c4ncc(Cl)cc34)cn2)c1 [Compound P-0408, (2-Chloro-5-fluoro-benzyl)-[5-(5-chloro-1H-pyrrolo[2,3-b]pyridin-3-ylmethyl)-pyrimidin-2-yl]-amine] | < 1000
13 | CNc1ncccc1CNc1ccc(Cc2c[nH]c3ncccc23)cn1 [Compound P-0385, Methyl-(3-{[5-(1H-pyrrolo[2,3-b]pyridin-3-ylmethyl)-pyridin-2-ylamino]-methyl}-pyridin-2-yl)-amine] | < 1000
14 | COc1cnc2[nH]cc(Cc3ccc(NCc4cc(F)ccc4F)nc3)c2c1 [Compound P-0330, (2,5-Difluoro-benzyl)-[5-(5-methoxy-1H-pyrrolo[2,3-b]pyridin-3-ylmethyl)-pyridin-2-yl]-amine] | < 1000

Continued, values first:

Row | IC50 [nM] | SMILES
15 | < 100 | COc1ccc(CNc2ccc(Cc3c[nH]c4ncc(Cl)cc34)cn2)cn1 [Compound P-0283, [5-(5-Chloro-1H-pyrrolo[2,3-b]pyridin-3-ylmethyl)-pyridin-2-yl]-(6-methoxy-pyridin-3-ylmethyl)-amine]
16 | < 100 | COc1cnc2[nH]cc(Cc3ccc(NCc4ccccc4C(F)(F)F)nc3)c2c1 [Compound P-0326, [5-(5-Methoxy-1H-pyrrolo[2,3-b]pyridin-3-ylmethyl)-pyridin-2-yl]-(2-trifluoromethyl-benzyl)-amine]
17 | < 100 | N#Cc1cnc2[nH]cc(Cc3ccc(NCc4ccc(Cl)cc4)nc3F)c2c1 [Compound P-0432, 3-[6-(4-Chloro-benzylamino)-2-fluoro-pyridin-3-ylmethyl]-1H-pyrrolo[2,3-b]pyridine-5-carbonitrile]
18 | < 100 | FC(F)(F)c1ccc(CNc2ncc(Cc3c[nH]c4ncc(Cl)cc34)cn2)cn1 [Compound P-0429, [5-(5-Chloro-1H-pyrrolo[2,3-b]pyridin-3-ylmethyl)-pyrimidin-2-yl]-(6-trifluoromethyl-pyridin-3-ylmethyl)-amine]
19 | < 100 | Fc1cccc(CNc2ncc(Cc3c[nH]c4ncc(Cl)cc34)cn2)c1 [Compound P-0442, [5-(5-Chloro-1H-pyrrolo[2,3-b]pyridin-3-ylmethyl)-pyrimidin-2-yl]-(3-fluoro-benzyl)-amine]
20 | < 100 | Cc1cc(F)ccc1CNc1ccc(Cc2c[nH]c3ncccc23)cn1 [Compound P-0372, (4-Fluoro-2-methyl-benzyl)-[5-(1H-pyrrolo[2,3-b]pyridin-3-ylmethyl)-pyridin-2-yl]-amine]
21 | < 100 | COc1ccc(CNc2ccc(Cc3c[nH]c4ncccc34)cn2)c(OC)n1 [Compound P-0370, (2,6-Dimethoxy-pyridin-3-ylmethyl)-[5-(1H-pyrrolo[2,3-b]pyridin-3-ylmethyl)-pyridin-2-yl]-amine]
22 | < 100 | Fc1ccc(CNc2nc(Cl)c(Cc3c[nH]c4ncc(Cl)cc34)s2)cc1 [Compound P-0195, [4-Chloro-5-(5-chloro-1H-pyrrolo[2,3-b]pyridin-3-ylmethyl)-thiazol-2-yl]-(4-fluoro-benzyl)-amine]
23 | < 100 | N#Cc1cnc2[nH]cc(Cc3ccc(NCc4ccc(C(F)(F)F)nc4)nc3Cl)c2c1 [Compound P-0232, 3-{2-Chloro-6-[(6-trifluoromethyl-pyridin-3-ylmethyl)-amino]-pyridin-3-ylmethyl}-1H-pyrrolo[2,3-b]pyridine-5-carbonitrile]
24 | < 10 | CN(C)c1ccccc1CNc1ncc(Cc2c[nH]c3ncc(Cl)cc23)cn1 [Compound P-0449, [5-(5-Chloro-1H-pyrrolo[2,3-b]pyridin-3-ylmethyl)-pyrimidin-2-yl]-(2-dimethylamino-benzyl)-amine]
25 | < 100 | COc1ccc(CNc2ccc(Cc3c[nH]c4ncc(C)cc34)cn2)cn1 [Compound P-0282, (6-Methoxy-pyridin-3-ylmethyl)-[5-(5-methyl-1H-pyrrolo[2,3-b]pyridin-3-ylmethyl)-pyridin-2-yl]-amine]
26 | < 10 | COc1cnc2[nH]cc(Cc3ccc(NCc4ccc(C(F)(F)F)nc4)nc3F)c2c1 [Compound P-0187, [6-Fluoro-5-(5-methoxy-1H-pyrrolo[2,3-b]pyridin-3-ylmethyl)-pyridin-2-yl]-(6-trifluoromethyl-pyridin-3-ylmethyl)-amine]
27 | < 100 | COc1cnc2[nH]cc(Cc3ccc(NCc4ccc(OC)nc4)nc3)c2c1 [Compound P-0332, (6-Methoxy-pyridin-3-ylmethyl)-[5-(5-methoxy-1H-pyrrolo[2,3-b]pyridin-3-ylmethyl)-pyridin-2-yl]-amine]
28 | < 100 | CN(C)c1ncccc1CNc1ccc(Cc2c[nH]c3ncccc23)cn1 [Compound P-0399, Dimethyl-(3-{[5-(1H-pyrrolo[2,3-b]pyridin-3-ylmethyl)-pyridin-2-ylamino]-methyl}-pyridin-2-yl)-amine]

Reference: patent US9550768B2, “Kinase modulation and indications therefor” (PLEXXIKON INC., priority 2011, dated 2017)
